In US4875922A, “Pyrimidine derivatives” (Imperial Chemical Industries PLC, priority 1986, dated 1989):

What was measured:
[1] = test system: Barley; test: Whole plant screen for plant growth regulator activity, barley (BR); format: in vivo, Barley (Atem); details: for G = Greening effect / I = Interligular or internodal length reduction / R = Retardation / T = Tillering or side shooting: BR, 4000 ppm (4 kg/ha), visual score after 2-6 weeks; for T = Tillering or side shooting: * = decrease in tillering
Outline: (§1)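 Growth-regulator effects were judged by eye on glasshouse plants 2-6 weeks post-spray (timing varying with season), using formulation blanks for comparison. Application rate was 4000 ppm, equivalent to 4 kg/ha in 1000 l/ha.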

[2] = test system: Wheat; test: Whole plant screen for plant growth regulator activity, wheat (WW); format: in vivo, Wheat (Timmo); details: WW, 4000 ppm (4 kg/ha), visual score after 2-6 weeks; for T = Tillering or side shooting: * = decrease in tillering
Outline: as §1

[3] = test system: Rice; test: Whole plant screen for plant growth regulator activity, rice (RC); format: in vivo, Rice (Ishikari); details: 4000 ppm (4 kg/ha), visual score after 2-6 weeks; for T = Tillering or side shooting: * = decrease in tillering
Outline: as §1

[4] = test system: Maize; test: Whole plant screen for plant growth regulator activity, maize (MZ); format: in vivo, Maize (Earliking); details: 4000 ppm (4 kg/ha), visual score after 2-6 weeks
Outline: as §1

[5] = test system: Apple; test: Whole plant screen for plant growth regulator activity, apple (AP); format: in vivo, Apple (Red Delicious); details: 4000 ppm (4 kg/ha), visual score after 2-6 weeks
Outline: as §1

[6] = test system: Rice; test: Intermediate Retardant Test, rice; format: in vivo, Rice (Ishikari); details: Oryza sativa, 672 h, overall spray, approximately 28 days, Table VI, read-out: Percentage Reduction in Height of Rice (Compared to formulation blank)
Outline: (§2)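 Overall spray at 500 and 2000 ppm (0.5 and 2 kg/ha^-1 at 1000 l/ha^-1); for apples, a 2000 ppm foliar-only spray was also compared with a 2000 ppm root drench. Rice grew in flooded 4" paddy pots, barley and apples in 4" pots. About 28 days after treatment, height (to top-most ligule, or to apex for apples) was recorded as % reduction versus formulation blank.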

[7] = test system: Spring Barley; test: Intermediate Retardant Test, spring barley; format: in vivo, Spring Barley (Atem/kym); details: Hordeum vulgare, 672 h, overall spray, approximately 28 days, Table VII, read-out: Percentage Reduction in Height of Spring Barley (Compared to formulation blank)
Outline: as §2

[8] = test system: Apples; test: Intermediate Retardant Test, apples, overall spray; format: in vivo, Apples (Red Delicious); details: approximately 28 days, Table VIII
From the text: Three species are involved in this test RICE, SPRING-BARLEY and APPLES. The variety and growth stages at spray are outlined in Table V. Compounds were applied at 500 ppm and 2000 ppm respectively (0.5 kg and 2 kg/ha^-1 at a field volume of 1000 l/ha^-1) as an overall spray except in the case of certain tests on APPLES. This gives a foliar and root component in the test, i.e., this test will detect the activity of both root and foliar acting compounds. The intermediate retardant test on APPLES of which the results are given in Table IX was different, in that a foliar (only) spray at 2000 ppm was compared with a root drench, also at 2000 ppm. The rice was grown in 4" `paddy` pots, i.e., the roots and bottom of the stems are immersed in water under conditions corresponding to those in paddy fields. Spring barley and apples were grown in 4" pots. The plants were assessed for height to top-most ligule at approximately 28 days after treatment for spring barley and rice and for height to apex at approximately 28 days after the treatment for apples. In each case the result for the 500 ppm and 2000 ppm test for each compound is compared to the height of the formulation blank in that test, presented as a percentage reduction in height compared to the formulation blank.

[9] = test system: Erysiphe graminis; test: Foliar fungal disease control, Erysiphe graminis (barley); format: in vivo; details: 100 ppm spray plus root drench (approximately 40 ppm a.i/dry soil); inoculated 24 hours before treatment
[10] = test system: Pyricularia oryzae; format: in vivo; details: 100 ppm spray plus root drench (approximately 40 ppm a.i/dry soil), one or two days before inoculation
[11] = test system: Cercospora arachidicola; test: Foliar fungal disease control, Cercospora arachidicola (peanut); format: in vivo; details: 100 ppm spray plus root drench (approximately 40 ppm a.i/dry soil), one or two days before inoculation
[12] = test system: Plasmopara viticola; test: Foliar fungal disease control, Plasmopara viticola (vine); format: in vivo; details: 100 ppm spray plus root drench (approximately 40 ppm a.i/dry soil), one or two days before inoculation
[13] = test system: Puccinia recondita; test: Foliar fungal disease control, Puccinia recondita (wheat); format: in vivo; details: 100 ppm spray plus root drench (approximately 40 ppm a.i/dry soil), one or two days before inoculation
[14] = test system: Phytophthora infestans; format: in vivo; details: 100 ppm spray plus root drench (approximately 40 ppm a.i/dry soil), one or two days before inoculation
[15] = test system: Tomato; test: Whole plant screen for plant growth regulator activity, tomato (TO); format: in vivo, Tomato (Ailsa Craig); details: 4000 ppm (4 kg/ha), visual score after 2-6 weeks
Outline: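 Plant growth regulation scored visually 2–6 weeks post-spray, relative to formulation-blank controls, with growth at 25/22 °C day/night under 16 h light. Treatment: 4000 ppm (4 kg/ha, 1000 l/ha volume) track-sprayed onto Ailsa Craig tomato at the 2–2½ leaf stage, grown singly in 3-inch peat pots.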

[16] = test system: Apples; test: Intermediate Retardant Test, apples, foliar spray compared with root drench; format: in vivo, Apples (Red Delicious); details: 672 h, approximately 28 days, Table IX, read-out: Percentage Reduction in Height of Apples (Compared to formulation blank); for percent reduction in plant height at 2000 ppm: 2000 ppm (Foliar); for percent reduction in plant height at 2000 µg/mL: soil, 2000 pmm (Root), root drench
Outline: as §2

[17] = test system: Venturia inaequalis; test: Foliar fungal disease control, Venturia inaequalis (apple); format: in vivo; details: 100 ppm spray plus root drench (approximately 40 ppm a.i/dry soil), one or two days before inoculation

| Structure (SMILES) | G = Greening effect [1] | I = Interligular or internodal length reduction [1] | R = Retardation [1] | R = Retardation [2] | T = Tillering or side shooting [2] | G = Greening effect [3] | I = Interligular or internodal length reduction [3] | R = Retardation [3] | I = Interligular or internodal length reduction [5] | R = Retardation [5] | Percent reduction in rice height vs formulation blank at 500 ppm [6] | Percent reduction in rice height vs formulation blank at 2000 ppm [6] | percent reduction in plant height at 500 ppm [7] | percent reduction in plant height at 2000 ppm [7] | disease control, ERYSIPHE GRAMINIS (BARLEY) [9] | disease control, P[…] (RICE) [10] | disease control, CERCOSPORA ARACHIDICOLA (PEANUT) [11] | disease control, PLASMOPARA VITICOLA (VINE) [12] | disease control, PUCCINIA RECONDITA (WHEAT) [13] | disease control, PH[…] (TOMATO) [14] | other results |
| --- | --- | --- | --- | --- | --- | --- | --- | --- | --- | --- | --- | --- | --- | --- | --- | --- | --- | --- | --- | --- | --- |
| CCCCC#CC(O)(c1cncnc1)C(C)C (stereo not shown) [Compound 1, 2-methyl-1-(hex-1-yne)-1-(pyrimidin-5-yl)-propan-1-ol] | 2 (31-60%) | 3 (61-100%) | 3 (61-100%) | 3 (61-100%) | 2 (31-60%) | 2 (31-60%) | 3 (61-100%) | 2 (31-60%) | 3 (61-100%) | 3 (61-100%) | 6.06% | 23% | 1.3% | 12.1% | 4 | 0 (60-100% of disease on untreated plants) | 0 (60-100% of disease on untreated plants) | 0 (60-100% of disease on untreated plants) | 0 (60-100% of disease on untreated plants) | 0 (60-100% of disease on untreated plants) | T = Tillering or side shooting [1]: 1 (10-30%); G = Greening effect [2]: 1 (10-30%); T = Tillering or side shooting [3]: 3 (61-100%); I = Interligular or internodal length reduction [4]: 2 (31-60%); R = Retardation [4]: 2 (31-60%); T = Tillering or side shooting ([5]; * = decrease in tillering): 1 (10-30%); Percentage Reduction in Height of Apples (Compared to formulation blank) ([8]; 500 ppm): 10.8%; Percentage Reduction in Height of Apples (Compared to formulation blank) ([8]; 2000 ppm): 39.2% |
| CC(C)(C)C(O)(C#CCCCCl)c1cncnc1 (stereo not shown) [Compound 19, 2,2-Dimethyl-1-(5-chloropent-1-yne)-1-(pyrimidin-5-yl)-propan-1-ol] | 1 (10-30%) | 3 (61-100%) | 3 (61-100%) | 3 (61-100%) | 3 (61-100%) | 2 (31-60%) | 3 (61-100%) | 2 (31-60%) | 3 (61-100%) | 3 (61-100%) | 11% | 39% | 31% | 57% | 4 | 0 (60-100% of disease on untreated plants) | 4 | 0 (60-100% of disease on untreated plants) | 4 | 0 (60-100% of disease on untreated plants) | A = Apical damage ([1]; 4000 ppm): 3 (61-100%); T = Tillering or side shooting [1]: 3 (61-100%); I = Interligular or internodal length reduction [2]: 3 (61-100%); G = Greening effect [5]: 1 (10-30%); G = Greening effect [15]: 2 (31-60%); I = Interligular or internodal length reduction [15]: 2 (31-60%); R = Retardation [15]: 2 (31-60%); percent reduction in plant height at 2000 ppm [16]: 54%; percent reduction in plant height at 2000 µg/mL [16]: 65% |
| CC(C)CC#CC(O)(c1cncnc1)C(C)(C)C (stereo not shown) [Compound 16] | 2 (31-60%) | 2 (31-60%) | 3 (61-100%) | 3 (61-100%) | 3 (61-100%) | 2 (31-60%) | 3 (61-100%) | 3 (61-100%) | 3 (61-100%) | 3 (61-100%) | 59% | 65% | 66% | 88% | 4 | 3 (trace - 5% of disease on untreated plants) | 4 | 0 (60-100% of disease on untreated plants) | 3 (trace - 5% of disease on untreated plants) | 0 (60-100% of disease on untreated plants) | G = Greening effect [2]: 2 (31-60%); I = Interligular or internodal length reduction [2]: 3 (61-100%); T = Tillering or side shooting [3]: 1 (10-30%); G = Greening effect [4]: 2 (31-60%); I = Interligular or internodal length reduction [4]: 3 (61-100%); R = Retardation [4]: 3 (61-100%); T = Tillering or side shooting ([4]; * = decrease in tillering): 1 (10-30%); G = Greening effect [5]: 3 (61-100%); G = Greening effect [15]: 2 (31-60%); I = Interligular or internodal length reduction [15]: 3 (61-100%); R = Retardation [15]: 3 (61-100%); percent reduction in plant height at 2000 ppm [16]: 6%; percent reduction in plant height at 2000 µg/mL [16]: 47%; disease control, VENTURIA INAEQUALIS (APPLE) [17]: 4 |
